# Target: T1, AcHACL (Actinomycetospora chiangmaiensis, UniProt P0DUV9)
# T1 construct: recombinant from E. coli Lemo21(DE3), vector pASG-IBA43, N-terminal His-tag and C-terminal Strep-tag; tag removal not mentioned; homotetramer (dimer of dimers); C-terminal lid residues 556-590
# T1 sequence (P0DUV9 1-590): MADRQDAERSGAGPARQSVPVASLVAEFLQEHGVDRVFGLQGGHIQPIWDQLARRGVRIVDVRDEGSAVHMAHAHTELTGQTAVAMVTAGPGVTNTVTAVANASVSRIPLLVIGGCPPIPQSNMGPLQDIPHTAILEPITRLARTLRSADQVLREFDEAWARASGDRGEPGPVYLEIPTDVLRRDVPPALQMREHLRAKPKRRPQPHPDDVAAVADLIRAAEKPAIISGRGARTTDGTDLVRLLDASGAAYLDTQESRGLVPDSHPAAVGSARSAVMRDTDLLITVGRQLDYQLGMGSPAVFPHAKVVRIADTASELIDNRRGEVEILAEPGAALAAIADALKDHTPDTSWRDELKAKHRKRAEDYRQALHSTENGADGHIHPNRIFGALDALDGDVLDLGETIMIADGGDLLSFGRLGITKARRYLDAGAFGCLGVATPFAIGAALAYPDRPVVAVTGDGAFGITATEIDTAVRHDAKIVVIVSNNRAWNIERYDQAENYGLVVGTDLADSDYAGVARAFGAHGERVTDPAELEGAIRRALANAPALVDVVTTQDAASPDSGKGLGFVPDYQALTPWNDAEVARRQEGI
# Test: X-ray crystal structure, […] Å
# Assay type: binding
structure (smiles),measurement,setting,value
CC(C)(COP(=O)(O)OP(=O)(O)OC[C@H]1O[C@@H](n2cnc3c(N)ncnc32)[C@H](O)[C@@H]1OP(=O)(O)O)[C@@H](O)C(=O)NCCC(=O)NCCSC=O [formyl-CoA],"X-ray crystal structure, 1.64 Å","product-bound dimer formed from 2-HIB-CoA in the crystal, density not well defined beyond the pantoyl moiety",the products formyl-CoA and acetone are bound to the other dimer
CC(C)=O [acetone],"X-ray crystal structure, 1.64 Å","product-bound dimer, additional density near ThDP interpreted as acetone, hydrogen bond to E493",additional electron density close to the ThDP cofactor was interpreted as an acetone molecule

# — publication PMC8760513, “Mechanistic details of the actinobacterial lyase-catalyzed degradation reaction of 2-hydroxyisobutyryl-CoA” (The Journal of Biological Chemistry, 2021)
